As usually defined, the IC50 is the midpoint of a concentration-inhibition curve. Read a low IC50 as higher potency.

This assay has as its target T1, HBCK (human brain-type creatine kinase, human BB-CK) (Homo sapiens, UniProt P12277).
T1 construct: gene CKB; homodimer BB; identified by LC-MS/MS
Kind of assay: residual activity after […] h incubation, pH-colorimetric assay (thymol blue, […] nm). The format is biochemical.

The structures appear in SMILES notation.

T1 sequence (P12277 2-381): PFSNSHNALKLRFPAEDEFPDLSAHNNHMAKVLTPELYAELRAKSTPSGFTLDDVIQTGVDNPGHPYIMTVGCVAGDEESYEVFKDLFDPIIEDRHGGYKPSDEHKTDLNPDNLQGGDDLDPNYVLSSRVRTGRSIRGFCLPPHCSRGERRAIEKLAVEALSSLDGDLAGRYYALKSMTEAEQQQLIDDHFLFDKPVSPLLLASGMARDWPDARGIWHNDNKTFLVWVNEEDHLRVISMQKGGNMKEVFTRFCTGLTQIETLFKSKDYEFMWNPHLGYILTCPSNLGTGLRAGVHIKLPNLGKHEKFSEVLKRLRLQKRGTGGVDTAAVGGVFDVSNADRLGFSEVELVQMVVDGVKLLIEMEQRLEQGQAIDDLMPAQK

Molecule `C=CC(N)=O` [acrylamide] registered a 50% inhibitory concentration (IC50) of approximately 50 mM.

These data come from publication PMC2790104, “Effects of Acrylamide on the Activity and Structure of Human Brain Creatine Kinase” (International Journal of Molecular Sciences, 2009).
